# Experimental data taken from US20250170154A1 (GreenStone Biosciences, Inc., priority 2023, published 2025).
# Read-outs that look alike come from different tables or passages of the source.
# Assays:
# [1] = Thermodynamic solubility in FaSSIF; type: physicochemical; conditions: thermodynamic from solid, room temperature, 24 hours shaking
# Protocol: After shaking, the samples were centrifuged at 25° C. for 20 minutes at 4000 rpm. Filtrates were prepared using the Whatman Mini-UniPrep Syringeless Filter Device (PTFE filter media with polypropylene housing, pore size 0.45 μm) from Cytiva, and dilutions were performed as required. Quantification of all samples was carried out using an LC-UV system.
# [2] = Stability in simulated gastric fluid (SGF); type: in vitro ADME; conditions: SGF pH 1.2, 37° C., 2 μM
# Protocol: The stability of compounds 1 to 4, and the control compound omeprazole, were measured in simulated gastric fluid (SGF: 0.2% w/v sodium chloride, 0.7% v/v hydrochloric acid, and 0.32% w/v pepsin in deionized water, pH 1.2±0.05). Stock solutions of the compounds (10 mM) were diluted to 200 μM in DMSO, then duplicate 2 μL aliquots added to 96-well plates for time points 0, 1, 2, 6, and 24 hours. SGF (198 μL) was added to all wells except those for time 0, to give a starting compound concentration of 2 μM; and the samples were incubated at 37° C. with agitation at 600 rpm for the prescribed times. After incubation, 200 μL of each sample was extracted and mixed with 400 μL cold ACN containing 200 ng/mL tolbutamide and labetalol as internal standards. The samples were centrifuged at […] for 20 minutes at 4° C., and the supernatants (60 μL) each diluted with purified water (180 μL) for LC/MS/MS analysis. The percentage of the test compound remaining at each time point was calculated based on the ratio of the peak area of the analyte to the internal standards.
# [3] = Intestinal stability, human intestinal S9; type: in vitro ADME
# Protocol: (§1) The stability of compounds 1 and 2, and the control compound 7-hydroxycoumarin, were measured using human, rat, and mouse intestinal S9 fractions (Xenotech). Test compound working solutions were prepared by diluting 5 μL of 10 mM stock solutions in DMSO with 495 μL AN. S9 solutions were prepared by diluting the obtained S9 solutions to 1.0 mg/mL in 100 mM potassium phosphate buffer at pH 7.4 containing 10 mM D-saccharic acid-1,4-lactone. An Apricot automation workstation was used to add 100 μL/well of S9 solution to all reaction plates (Blank, T0, T5, T15, T30, T45, T60 and NCF60); 2 μL/well of compound working solutions were added to all 96-well reaction plates except the blank (T0, T5, T15, T30, T45, T60, and NCF60); 600 μL/well of stop solution (4° C. ACN containing 200 ng/mL tolbutamide and 200 ng/mL labetalol as internal standards) was added to the T0 reaction plate; all plates were pre-incubated at 37° C. for 10 minutes; a cofactor regenerating system (98 μL/well) was added, excluding the NCF60 plate which instead received 98 μL/well of 100 mM potassium phosphate buffer. All plates were then incubated at 37° C. To terminate reactions, 600 μL/well of stop solution was applied at specific end time points. After sealing and a 10-minute shaking, plates were centrifuged at 4000 rpm and 4° C. for 20 minutes. Concurrently, 300 μL/well of HPLC grade water was loaded onto eight new 96-well bioanalysis plates. Post-centrifugation, 100 μL supernatant from each reaction plate was transferred to its corresponding bioanalysis plate, shaken for 10 minutes, and then subjected to LC-MS/MS analysis (Shimadzu LC-40D LC system coupled to a Sciex Qtrap 6500 Plus mass spectrometer, using both positive and negative ion modes).
# [4] = Intestinal stability, mouse intestinal S9; type: in vitro ADME; conditions: intestinal S9 fraction
# Protocol: as §1
# [5] = Intestinal stability, rat intestinal S9; type: in vitro ADME
# Protocol: as §1
# [6] = Conjugate formation in intestinal S9 incubations; type: in vitro ADME, human, rat, mouse
# Protocol: as §1, with “Concurrently, 300 μL/well of HPLC grade water was loaded onto eight new 96-well bioanalysis plates. Post-centrifugation, 100 μL supernatant from each reaction plate was transferred to its corresponding bioanalysis plate, shaken for 10 minutes, and then subjected to LC-MS/MS analysis (Shimadzu LC-40D LC system coupled to a Sciex Qtrap 6500 Plus mass spectrometer, using both positive and negative ion modes).” left out
# [7] = Pharmacokinetics in the rat, dosing in solution; conditions: rat, in vivo, 25 mg/kg
# [8] = Wang et al.; cited from earlier work
# [9] = intestinal S9 fraction, pH 7.4, read-out: intrinsic clearance rate
Compound,solubility at 24 h ([1]; read-out: Solubility) [mM],solubility at 24 h ([1]; read-out: Solubility (μg/mL)) [µg/mL],Percentage remaining at time: 1 hour [2] [%],Percentage remaining at time: 2 hours [2] [%],Percentage remaining at time: 6 hours [2] [%],Percentage remaining at time: 24 hours [2] [%],Percentage remaining at time: 0 [2] [%],also measured
"O=c1c(-c2ccc(OCOP(=O)(O)O)cc2)coc2cc(O)cc(O)c12 [Compound 1, (4-(5,7-Dihydroxy-4-oxo-4H-chromen-3-yl)phenoxy)methyl dihydrogen phosphate]",12.5,4770,94.4,91.5,83.8,42.1,100,"normalized control factor remaining [3]: 24.9%; half-life at 1 µM ([3]; intestinal S9 fraction, pH 7.4): 28.7 min; microsomal CLint at 1 µM [3, 9]: 48.4 µL/min/mg; half-life at 1 µM ([4]; pH 7.4): 29.7 min; microsomal CLint at 1 µM ([4]; pH 7.4, read-out: intrinsic clearance rate): 46.7 µL/min/mg; normalized control factor remaining [5]: 30.4%; half-life at 1 µM ([5]; intestinal S9 fraction, pH 7.4): 2.6 min; microsomal CLint at 1 µM [5, 9]: 526 µL/min/mg; formation of glucuronidation, sulfation, and glutathione conjugates [6]: noticeable absence; Cmax ([7]; male, SD): ~15 ng/mL; Tmax ([7]; male, SD): ~8 min; decline of plasma concentration of dosed compound [7]: very rapid decline in concentration"
"O=c1c(-c2ccc(OCOP(=O)(O)O)cc2)coc2cc(OCOP(=O)(O)O)cc(O)c12 [Compound 3, ((5-Hydroxy-4-oxo-3-(4-((phosphonooxy)methoxy)phenyl)-4H-chromen-7-yl)oxy)methyl dihydrogen phosphate]",10.2,5000,95.1,101,96.1,51.4,100,
"CC(C)(CCCOP(=O)(O)O)C(=O)Oc1ccc(-c2coc3cc(O)cc(O)c3c2=O)cc1 [Compound 4, 4-(5,7-Dihydroxy-4-oxo-4H-chromen-3-yl)phenyl 2,2-dimethyl-5-(phosphonooxy)pentanoate]",0.612,293,104,110,114,106,100,
"O=c1c(-c2ccc(O)cc2)coc2cc(OP(=O)(O)O)cc(O)c12 [Genistein-7-O-phosphate, genistein 7-O-phosphate, reference compound]",3.57,1250,,,,,,bioavailability [8]: more bioavailable than aglyconic genistein; water solubility [8]: practically water soluble
"COc1ccc2[nH]c([S+]([O-])Cc3ncc(C)c(OC)c3C)nc2c1 (stereo not drawn) [Omeprazole, omeprazole, reference compound]",,,35.4,23.1,4.2,0,100,
